From patent publication US8834841B2, “Imaging agents” (priority 2005, dated 2014)

Columns and labels:
SKOV3 ovarian carcinoma = assay: in vitro amino acid uptake, SKOV3 cells; assay type: cell-based, human
From the text: (§1) The inventive compounds have been evaluated in vitro for tumor binding specificity (i.e. uptake cells) using a variety of tumor cell lines available in the art, along with reference compounds such as Me-AIB and BCH. Detailed description of these assays can be found in Martarello et al. (2002) Journal of Medicinal Chemistry, 45:2250-2259 and McConathy et al. (2003) Nuclear Medicine and Biology, 30:477-490. These, so called “amino acid uptake studies” are typically carried out with radiolabeled compounds in at least five phenotypically different human tumor cell lines (e.g. A549 lung carcinoma, MB468 breast carcinoma, DU145 prostate carcinoma, SKOV3 ovarian carcinoma, and U87 glial blastoma). These tumor cell lines can be grown either in vitro or in vivo with severe combined immunodeficiency (SCID) mice as a host. The fore-mentioned tumor cell lines are available at the Winship Cancer Institute of Emory University.
(§2) For the in vitro amino acid uptake studies, all cells can be grown to monolayer confluency in T-175 culture flasks [Corning, Corning, N.Y.] (approx. 1×10^8 cells/flask) in Dulbecco's Modified Eagle's Medium (DMEM) [Sigma, St. Louis, Mo.] in a humidified incubator (37° C., 5% CO2/95% air). Media are supplemented with 10% fetal calf serum [Hyclone, Logan, Utah], and antibiotics (10,000 U/ml penicillin and 10 mg/ml streptomycin) (Sigma, St. Louis, Mo.). For tissue culture passage, monolayer cells are detached by gentle trypsinization, resuspended in complete media, and split 1:10 into new T-flasks. […]
(§3) In the in vitro studies the uptake rate of each amino acid compound is measured in each tumor line, as well as the dominant transport mechanisms of each tumor cell line. After trypsinization, cells are resuspended in serum-free media, then counted on a hemocytometer, with viability assessed through Trypan blue staining. […] The vials are placed in a Cobra-II gamma counter (Packard, Meriden, Conn.), with the activity per cell number determined. […] Saline washes are performed as described above, and the filtered cells radioactivity determined on the gamma counter. […]

A549 lung carcinoma = assay: in vitro amino acid uptake, A549 cells; assay type: cell-based, human
From the text: as §1, §2, §3

[1] = system: U87 Glioma Tumor Cells Implanted SC in SCID Mice; assay: tissue distribution, U87 tumor-bearing SCID mice; assay type: in vivo
Description: For the in vitro amino acid uptake studies, all cells can be grown to monolayer confluency in T-175 culture flasks [Corning, Corning, N.Y.] (approx. 1×10^8 cells/flask) in Dulbecco's Modified Eagle's Medium (DMEM) [Sigma, St. Louis, Mo.] in a humidified incubator (37° C., 5% CO2/95% air). Media are supplemented with 10% fetal calf serum [Hyclone, Logan, Utah], and antibiotics (10,000 U/ml penicillin and 10 mg/ml streptomycin) (Sigma, St. Louis, Mo.). For tissue culture passage, monolayer cells are detached by gentle trypsinization, resuspended in complete media, and split 1:10 into new T-flasks. Cultures are passaged weekly, and fed fresh media every 2 to 3 days. To initiate tumor growth in SCID mice, 1×10^6 cells are injected s.c. bilaterally into the flanks (inguinal region) of the recipient animals using a 1 ml syringe with a 27 gauge needle. Ex vivo experiments can be performed with animals containing tumors weighing between 500 mg and 1 g, as estimated by caliper measurement (tumor weight=(π/6)*abc, where a, b and c are the tumor length, width and height, respectively). The compounds of the invention are further evaluated for their tumor specificity and selectivity in tumor-bearing animal models. One can evaluate and compare the transport, accumulation and tissue distribution of each compound in these in vivo animal studies. Tissue distribution of the compounds is measured in SCID mice (average weight, 20-25 g) bearing human tumors as follows. The candidate radioligands (20 uCi in 0.4 ml 0.9% NaCl) are injected into the tail vein of tumor-bearing mice. […] Tissues (blood, heart, liver, lungs, kidneys, bone, thyroid, muscle, brain and tumor) are excised, rinsed in saline, and blotted dry. The tissues are weighed, placed into 12×75 mm glass vials, the radioactivity determined with a gamma counter, and the percent dose/gram calculated. Total activities of blood and muscle are calculated by assuming that they account for 7% and 40% of the total body mass, respectively.

% Dose/g blood ([1]; 15 Minutes): 3.50 % Dose/g
% Dose/g bone ([1]; 15 Minutes): 2.10 % Dose/g
% Dose/g brain ([1]; 15 Minutes): 0.28 % Dose/g
% Dose/g heart ([1]; 15 Minutes): 2.59 % Dose/g
% Dose/g kidney ([1]; 15 Minutes): 9.21 % Dose/g
% Dose/g liver ([1]; 15 Minutes): 3.43 % Dose/g
% Dose/g lung ([1]; 15 Minutes): 4.08 % Dose/g
% Dose/g muscle ([1]; 15 Minutes): 1.45 % Dose/g
% Dose/g pancreas ([1]; 15 Minutes): 49.78 % Dose/g
% Dose/g spleen ([1]; 15 Minutes): 6.63 % Dose/g
% Dose/g tumor ([1]; 15 Minutes): 6.48 % Dose/g
% Dose/g blood ([1]; 30 Minutes): 2.17 % Dose/g
% Dose/g bone ([1]; 30 Minutes): 1.66 % Dose/g
% Dose/g brain ([1]; 30 Minutes): 0.22 % Dose/g
% Dose/g heart ([1]; 30 Minutes): 2.00 % Dose/g
% Dose/g kidney ([1]; 30 Minutes): 5.08 % Dose/g
% Dose/g liver ([1]; 30 Minutes): 2.58 % Dose/g
% Dose/g lung ([1]; 30 Minutes): 2.82 % Dose/g
% Dose/g muscle ([1]; 30 Minutes): 1.12 % Dose/g
% Dose/g pancreas ([1]; 30 Minutes): 41.30 % Dose/g
% Dose/g spleen ([1]; 30 Minutes): 5.11 % Dose/g
% Dose/g tumor ([1]; 30 Minutes): 5.44 % Dose/g
% Dose/g blood ([1]; 60 Minutes): 0.81 % Dose/g
% Dose/g bone ([1]; 60 Minutes): 1.21 % Dose/g
% Dose/g brain ([1]; 60 Minutes): 0.17 % Dose/g
% Dose/g heart ([1]; 60 Minutes): 1.13 % Dose/g
% Dose/g kidney ([1]; 60 Minutes): 2.00 % Dose/g
% Dose/g liver ([1]; 60 Minutes): 1.22 % Dose/g
% Dose/g lung ([1]; 60 Minutes): 1.15 % Dose/g
% Dose/g muscle ([1]; 60 Minutes): 1.10 % Dose/g
% Dose/g pancreas ([1]; 60 Minutes): 17.78 % Dose/g
% Dose/g spleen ([1]; 60 Minutes): 3.02 % Dose/g
% Dose/g tumor ([1]; 60 Minutes): 3.61 % Dose/g
% Dose/g blood ([1]; 120 Minutes): 0.46 % Dose/g
% Dose/g bone ([1]; 120 Minutes): 1.20 % Dose/g
% Dose/g brain ([1]; 120 Minutes): 0.16 % Dose/g
% Dose/g heart ([1]; 120 Minutes): 0.89 % Dose/g
% Dose/g kidney ([1]; 120 Minutes): 1.10 % Dose/g
% Dose/g liver ([1]; 120 Minutes): 0.75 % Dose/g
% Dose/g lung ([1]; 120 Minutes): 0.64 % Dose/g
% Dose/g muscle ([1]; 120 Minutes): 0.99 % Dose/g
% Dose/g pancreas ([1]; 120 Minutes): 10.20 % Dose/g
% Dose/g spleen ([1]; 120 Minutes): 1.48 % Dose/g
% Dose/g tumor ([1]; 120 Minutes): 2.73 % Dose/g
Compound: NC1(C(=O)O)CCC1[18F] [Anti-R,S 2-[^18F]FACBC, (R,S) anti-1-amino-2-[^18F]fluorocyclobutyl-1-carboxylic acid]
% Dose Uptake/0.5e6 Cells (SKOV3 ovarian carcinoma; SKOV3, No inhibitor): 2.16 +/− 0.14 % Dose Uptake/0.5e6 Cells
% Dose Uptake/0.5e6 Cells (SKOV3 ovarian carcinoma; SKOV3, inhibitor BCH (10 mM)): 1.74 +/− 0.01 % Dose Uptake/0.5e6 Cells
% Dose Uptake/0.5e6 Cells (SKOV3 ovarian carcinoma; SKOV3, inhibitor MeAlB (10 mM)): 0.75 +/− 0.01 % Dose Uptake/0.5e6 Cells
% Dose Uptake/0.5e6 Cells (A549 lung carcinoma; A549, No inhibitor): 8.89 +/− 0.36 % Dose Uptake/0.5e6 Cells
% Dose Uptake/0.5e6 Cells (A549 lung carcinoma; A549, inhibitor BCH (10 mM)): 3.99 +/− 0.39 % Dose Uptake/0.5e6 Cells
% Dose Uptake/0.5e6 Cells (A549 lung carcinoma; A549, inhibitor MeAlB (10 mM)): 6.93 +/− 0.20 % Dose Uptake/0.5e6 Cells
